Laboratory results taken from patent US20070123466A1, “Method of treating recurrent miscarriages” (New York Society for the Ruptured and Crippled Maintaining …, priority 2003, published 2007).

What was measured:
Assay type in all cases: in vivo, mouse
[1] = system: C3 deposition in decidual tissue; assay: Immunohistochemistry of deciduas (C3, human IgG, granulocytes); settings: aPL-IgG treated mice that also received the agent
Excerpt: (§1) Immunohistochemistry. […] Sections were counterstained with hematoxylin.
as §1

DBA/2-mated CBA/J mice = assay: Fetal resorption in DBA/2-mated CBA/J mice, murine model of spontaneous recurrent miscarriage
Procedure: Female mice were allowed to mate with previously isolated male mice. The groups in the present experiment comprised 7-20 animals, one group of DBA/2-mated CBA/J mice and two controls (CBA×Balb/c and Balb/c×Balb/c). After mating, the females were checked daily until the presence of a vaginal plug was confirmed (this time point was then defined as day 0.5 of pregnancy). The mice were sacrificed 15 days post-conception. Uteri were dissected and the frequency of fetal resorption was determined as the number of resorptions divided by total number of formed fetuses and resorptions. Resorption sites, resulting from the loss of a previously viable fetus, are easily identifiable by visual inspection.
Mice were mated as described above, and sacrificed on day 8.5 post-conception. Sections of decidual tissue from CBA/J×Balb/c were incubated with an antibody to mouse C3, and followed by rabbit anti-goat IgG conjugated with HRP (horseradish peroxidase) and staining.
This experiment was carried out to investigate if blockade of complement activation would prevent fetal loss in the murine model of miscarriage. In these experiments, DBA/2-mated CBA/J pregnant mice were treated with three different targeted inhibitors of complement activation.
Crry-Ig. Complement receptor 1-related gene/protein y (Crry) inhibits C3 convertase activity. The Crry used in the experiments was Crry-Ig, which is a recombinant soluble form of Crry fused to the hinge, CH2, and CH3 domains of mouse IgG1, prepared as described in Quigg et al., J Immunol 1998;160:4553-4560. Crry-Ig blocks activation of C3 by both the classical and alternative pathways, thereby preventing all complement effector activities. Pregnant DBA/2-mated CBA/J mice were treated with 3 mg Crry-Ig, administered i.p. on days 8, 10 and 12.
Monoclonal anti-C5 mAb. Also tested was an antibody against C5, which prevents the cleavage of C5. […]
To inhibit factor B, mice were injected on days 7 through 13 of pregnancy with mAb1379 (2 mg intraperitoneally) or with murine IgG as a control. Fetal resorption frequency was calculated on day 15 of pregnancy.

[2] = system: pregnant mice treated with aPL-IgG; assay: aPL antibody-induced pregnancy loss, murine pregnancy model of APS
[3] = mice given aPL-IgG 10 mg i.p. days 8 and 12 plus the agent

Substance: AcPhe(L-ornithine-Pro-D-cyclohexylalanine-Trp-Arg) [C5aR-AP]
- C3 deposition in decidual tissue [1]: minimal C3 deposition
- neutrophil infiltration / inflammation in deciduas [1]: no evidence of inflammation
- fetal resorption rate (DBA/2-mated CBA/J mice; DBA/2-mated CBA/J mice, 100 μg i.p. on day 8, sacrificed day 15): about 7%
- fetal loss / pregnancy loss (DBA/2-mated CBA/J mice; DBA/2-mated CBA/J mice, inhibitor i.p. during pregnancy, fetal resorption day 15): prevented fetal loss
- fetuses and resorptions in uterus (DBA/2-mated CBA/J mice; uterus from treated DBA/2-mated CBA/J mouse, day 15): 6 larger fetuses with decidua and no resorptions
- aPL antibody-induced growth restriction [2, 3]: prevented
- aPL antibody-induced pregnancy loss (fetal resorption) [2, 3]: prevented
- frequency of fetal resorption in the absence of aPL antibodies ([2]; mice that received NH-IgG / no aPL antibodies): had no effect
